From ChEMBL document CHEMBL1145330, “NMR structure of a potent small molecule inhibitor bound to human keratinocyte fatty acid-binding protein” (J Med Chem, 2006)
pKi: −log10 of the molar value.

Columns and labels:
[1] = target: Fatty acid-binding protein, adipocyte (Homo sapiens, UniProt P15090); assay: Binding affinity to ap2
[2] = target: Fatty acid-binding protein 5 (Homo sapiens, UniProt Q01469); assay: Binding affinity to human kFABP
Chain of Fatty acid-binding protein 5 (Q01469 whole entry): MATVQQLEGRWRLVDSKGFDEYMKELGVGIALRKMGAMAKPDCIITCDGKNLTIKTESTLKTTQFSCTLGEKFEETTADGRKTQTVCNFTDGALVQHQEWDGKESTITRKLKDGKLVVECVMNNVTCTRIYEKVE

Chain of Fatty acid-binding protein, adipocyte (P15090 whole entry): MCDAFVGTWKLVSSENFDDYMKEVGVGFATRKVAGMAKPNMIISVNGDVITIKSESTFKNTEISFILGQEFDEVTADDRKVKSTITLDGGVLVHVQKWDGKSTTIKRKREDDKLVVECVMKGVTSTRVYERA

For OCC(O)c1cccc(OCc2ccccc2Cl)c1OCc1ccccc1Cl (stereo unspecified), the pKi [1] was < 5.70 and the pKi [2] was < 5.70.
For O=C(O)Cc1cccc(OCc2ccccc2Cl)c1OCc1ccccc1Cl, the pKi [1] was 7.80.
For O=C(O)C(=O)c1cccc(OCc2ccccc2Cl)c1OCc1ccccc1Cl, the pKi [1] was > 8.70 and the pKi [2] was > 8.70.
O=C(O)[C@@H](O)c1cccc(OCc2ccccc2Cl)c1OCc1ccccc1Cl showed a pKi [1] of 8.60.
